The text below walks through data of patent US20240132457A1, “3-(2-(BENZO[D]THIAZOL-2-YL)-2-(PHENYLSUFONAMIDO)ETHYL)BENZIMIDAMIDE DERIVATIVES AND RELATED COMPOUNDS AS TMPRSS2 INHIBITORS FOR THE TREATMENT OF VIRAL INFECTIONS” (INTEGERBIO, INC., priority 2020, published 2024).

The structures appear in SMILES notation.

Format in all cases: biochemical
What all share (details): 10-dose, 3-fold from 10 μM

One assay has as its target T1, FXIa (Homo sapiens, UniProt P03951).
T1 construct: FVIIa, Fxa, FXIa, Furin
The assay is described as follows: Non-TMPRSS2 protease panel: FXIa. The protocol: (§1) Biochemical activity of compound 1 (racemic mixture, batch 1), compound 3 (racemic), compound 11, and compound 2 (enantiomer 1, batch 1) in proteases indicated in Table 21, Table 22, Table 23, and Table 24, respectively, were measured by testing the compounds in a 10-dose IC50 with a 3-fold series dilution starting at 10 μM against the proteases. The protease activities were monitored as a time-course measurement of the increase in fluorescence signal from fluorescently-labeled peptide substrate, and initial linear portion of slope (signal/min) was analyzed. The curve fits were performed when the activities at the highest concentration of compounds were less than 65%.

Another assay addresses Tryptase b2 (Homo sapiens, UniProt P20231). Description: Non-TMPRSS2 protease panel: Tryptase b2. The protocol:
as §1

A further assay addresses T2, MMP 1 (Homo sapiens, UniProt P03956).
T2 sequence (P03956 100-469): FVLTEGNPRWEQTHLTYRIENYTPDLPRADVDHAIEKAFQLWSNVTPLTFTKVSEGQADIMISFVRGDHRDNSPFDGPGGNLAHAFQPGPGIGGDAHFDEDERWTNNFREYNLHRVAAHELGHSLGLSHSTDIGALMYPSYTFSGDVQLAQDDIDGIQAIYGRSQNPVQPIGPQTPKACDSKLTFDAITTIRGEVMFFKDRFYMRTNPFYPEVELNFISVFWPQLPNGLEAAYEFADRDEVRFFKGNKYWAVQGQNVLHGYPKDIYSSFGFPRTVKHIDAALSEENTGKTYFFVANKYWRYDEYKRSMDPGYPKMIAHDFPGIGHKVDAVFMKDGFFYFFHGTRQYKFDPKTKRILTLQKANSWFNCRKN
The assay is described as follows: Non-TMPRSS2 protease panel: MMP 1. The protocol: as §1

Another assay addresses T3, Kallikrein 14 (Homo sapiens, UniProt Q9P0G3).
T3 sequence (Q9P0G3 25-251): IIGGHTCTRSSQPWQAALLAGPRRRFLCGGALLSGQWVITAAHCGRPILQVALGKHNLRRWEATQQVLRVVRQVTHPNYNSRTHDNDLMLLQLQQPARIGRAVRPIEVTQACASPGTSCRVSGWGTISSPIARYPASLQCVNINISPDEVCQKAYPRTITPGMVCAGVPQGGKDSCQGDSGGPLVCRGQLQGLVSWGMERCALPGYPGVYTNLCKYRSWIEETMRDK
Description: Non-TMPRSS2 protease panel: Kallikrein 14. The protocol:
as §1

Another assay has as its target Kallikrein 1 (Homo sapiens, UniProt P06870). Description: Non-TMPRSS2 protease panel: Kallikrein 1. The protocol:
as §1

Another assay has as its target Tryptase g1 (Homo sapiens, UniProt Q9NRR2). Description: Non-TMPRSS2 protease panel: Tryptase g1. The procedure:
as §1

A further assay addresses T4, Matriptase 2 (Homo sapiens, UniProt Q8IU80).
T4 sequence (Q8IU80 1-811): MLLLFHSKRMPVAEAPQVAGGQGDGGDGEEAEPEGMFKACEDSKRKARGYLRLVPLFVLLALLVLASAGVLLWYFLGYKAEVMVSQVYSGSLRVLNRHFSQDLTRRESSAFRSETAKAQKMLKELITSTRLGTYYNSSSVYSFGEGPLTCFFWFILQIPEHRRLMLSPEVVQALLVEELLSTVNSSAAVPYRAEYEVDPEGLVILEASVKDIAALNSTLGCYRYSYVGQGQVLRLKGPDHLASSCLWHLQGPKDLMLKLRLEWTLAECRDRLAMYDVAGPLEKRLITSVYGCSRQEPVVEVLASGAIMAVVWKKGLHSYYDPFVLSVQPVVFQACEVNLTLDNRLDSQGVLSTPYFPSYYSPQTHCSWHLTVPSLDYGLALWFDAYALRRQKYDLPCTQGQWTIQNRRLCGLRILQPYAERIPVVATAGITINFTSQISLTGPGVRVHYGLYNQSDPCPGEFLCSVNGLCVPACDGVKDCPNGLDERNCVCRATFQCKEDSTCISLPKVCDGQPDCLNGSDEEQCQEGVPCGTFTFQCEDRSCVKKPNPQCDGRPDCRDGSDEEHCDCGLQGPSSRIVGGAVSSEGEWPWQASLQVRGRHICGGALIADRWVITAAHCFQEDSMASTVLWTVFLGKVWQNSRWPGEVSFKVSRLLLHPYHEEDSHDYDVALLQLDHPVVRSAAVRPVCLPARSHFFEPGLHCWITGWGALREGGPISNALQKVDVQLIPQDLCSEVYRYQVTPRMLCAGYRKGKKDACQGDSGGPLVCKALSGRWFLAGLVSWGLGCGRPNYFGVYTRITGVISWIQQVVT
Description: Non-TMPRSS2 protease panel: Matriptase 2. The procedure: as §1

The next assay concerns the target Cathepsin B (Homo sapiens, UniProt P07858). Description: Non-TMPRSS2 protease panel: Cathepsin B. The protocol:
as §1

Another assay addresses T5, MMP 7 (Homo sapiens, UniProt P09237).
T5 sequence (P09237 95-267): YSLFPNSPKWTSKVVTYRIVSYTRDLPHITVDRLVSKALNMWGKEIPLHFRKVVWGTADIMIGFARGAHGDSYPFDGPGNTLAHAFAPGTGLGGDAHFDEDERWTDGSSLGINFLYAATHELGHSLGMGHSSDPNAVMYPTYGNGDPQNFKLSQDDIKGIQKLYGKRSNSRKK
The assay is described as follows: Non-TMPRSS2 protease panel: MMP 7. The protocol: as §1

The target of the next assay is T6, FXa (Homo sapiens, UniProt P00742).
T6 construct: consisting of FXa, Kallikrein 1, MMP 1
T6 sequence (P00742 235-488 limits assumed): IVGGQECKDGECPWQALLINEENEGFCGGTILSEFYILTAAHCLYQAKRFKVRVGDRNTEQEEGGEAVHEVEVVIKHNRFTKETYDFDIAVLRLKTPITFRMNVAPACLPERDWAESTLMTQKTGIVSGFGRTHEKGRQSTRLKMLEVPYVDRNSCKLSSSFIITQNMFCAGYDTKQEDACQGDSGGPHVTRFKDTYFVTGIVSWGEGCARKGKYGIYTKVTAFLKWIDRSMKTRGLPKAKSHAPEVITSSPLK
T6 sequence (P00742 41-179 partner limits assumed): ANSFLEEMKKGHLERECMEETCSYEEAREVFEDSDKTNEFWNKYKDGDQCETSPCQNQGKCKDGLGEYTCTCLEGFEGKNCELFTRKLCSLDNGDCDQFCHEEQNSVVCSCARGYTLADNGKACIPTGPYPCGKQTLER
The assay is described as follows: Non-TMPRSS2 protease panel: FXa. The protocol: as §1

Another assay concerns the target T7, Mpro (Severe acute respiratory syndrome coronavirus 2, UniProt P0DTD1).
T7 construct: MMP 14, Mpro, Plasma Kallikrein
Description: Non-TMPRSS2 protease panel: Mpro. The protocol:
as §1

The target of another assay is T8, Kallikrein 13 (Homo sapiens, UniProt Q9UKR3).
T8 sequence (Q9UKR3 17-277): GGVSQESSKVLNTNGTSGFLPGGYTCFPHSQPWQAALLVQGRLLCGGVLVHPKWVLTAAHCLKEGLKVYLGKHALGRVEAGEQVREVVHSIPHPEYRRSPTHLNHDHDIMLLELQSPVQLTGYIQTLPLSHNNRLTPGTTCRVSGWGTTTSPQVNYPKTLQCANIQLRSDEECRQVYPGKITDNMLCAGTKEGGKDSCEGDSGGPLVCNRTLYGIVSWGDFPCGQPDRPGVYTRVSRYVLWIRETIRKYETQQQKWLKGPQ
Description: Non-TMPRSS2 protease panel: Kallikrein 13. The protocol: as §1

A further assay concerns the target Thrombin a (Homo sapiens, UniProt P00734). Description: Non-TMPRSS2 protease panel: Thrombin a. The procedure:
as §1

A further assay has as its target Cathepsin L (Homo sapiens, UniProt P07711). Description: Non-TMPRSS2 protease panel: Cathepsin L. The protocol: as §1

Tryptase g1, sequence (Q9NRR2 20-321): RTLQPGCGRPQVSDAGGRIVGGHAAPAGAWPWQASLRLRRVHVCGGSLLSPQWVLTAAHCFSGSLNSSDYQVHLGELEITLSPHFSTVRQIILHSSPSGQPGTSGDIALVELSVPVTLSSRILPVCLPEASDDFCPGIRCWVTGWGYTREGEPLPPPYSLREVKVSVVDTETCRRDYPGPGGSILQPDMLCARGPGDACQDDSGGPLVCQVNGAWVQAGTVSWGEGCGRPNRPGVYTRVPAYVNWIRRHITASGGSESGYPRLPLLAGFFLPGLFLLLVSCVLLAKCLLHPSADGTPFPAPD
Kallikrein 1, sequence (P06870 25-262): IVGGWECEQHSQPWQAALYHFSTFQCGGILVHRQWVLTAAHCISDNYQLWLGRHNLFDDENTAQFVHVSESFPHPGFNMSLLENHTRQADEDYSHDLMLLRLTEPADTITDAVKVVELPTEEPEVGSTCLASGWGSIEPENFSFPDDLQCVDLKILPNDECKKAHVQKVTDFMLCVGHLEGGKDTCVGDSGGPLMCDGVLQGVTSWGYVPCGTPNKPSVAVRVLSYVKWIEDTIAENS
T1 sequence (P03951 388-625 limits assumed): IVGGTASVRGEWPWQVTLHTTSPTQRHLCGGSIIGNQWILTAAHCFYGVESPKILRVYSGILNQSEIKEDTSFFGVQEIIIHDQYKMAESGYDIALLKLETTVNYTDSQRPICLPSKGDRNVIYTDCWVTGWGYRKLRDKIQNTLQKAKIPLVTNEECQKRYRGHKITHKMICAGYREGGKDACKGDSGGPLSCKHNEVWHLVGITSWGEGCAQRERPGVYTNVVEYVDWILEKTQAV
T1 sequence (P03951 19-387 partner limits assumed): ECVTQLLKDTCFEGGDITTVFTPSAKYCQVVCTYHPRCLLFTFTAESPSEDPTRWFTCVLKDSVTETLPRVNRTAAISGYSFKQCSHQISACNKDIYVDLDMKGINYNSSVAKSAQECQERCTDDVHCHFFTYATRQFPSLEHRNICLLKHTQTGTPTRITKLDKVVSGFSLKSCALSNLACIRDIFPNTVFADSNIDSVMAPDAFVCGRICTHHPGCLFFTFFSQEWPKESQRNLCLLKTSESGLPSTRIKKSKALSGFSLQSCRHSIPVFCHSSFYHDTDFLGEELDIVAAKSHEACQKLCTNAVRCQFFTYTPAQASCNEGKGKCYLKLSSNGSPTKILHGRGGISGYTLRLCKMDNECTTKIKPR
Tryptase b2, sequence (P20231 31-275): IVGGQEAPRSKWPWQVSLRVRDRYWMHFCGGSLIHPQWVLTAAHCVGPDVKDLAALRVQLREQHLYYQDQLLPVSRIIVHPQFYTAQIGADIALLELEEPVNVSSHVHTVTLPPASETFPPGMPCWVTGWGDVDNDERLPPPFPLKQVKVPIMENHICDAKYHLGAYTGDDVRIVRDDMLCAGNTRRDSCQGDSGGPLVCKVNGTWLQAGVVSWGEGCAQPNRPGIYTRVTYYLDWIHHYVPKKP
Cathepsin L, sequence (P07711 114-333): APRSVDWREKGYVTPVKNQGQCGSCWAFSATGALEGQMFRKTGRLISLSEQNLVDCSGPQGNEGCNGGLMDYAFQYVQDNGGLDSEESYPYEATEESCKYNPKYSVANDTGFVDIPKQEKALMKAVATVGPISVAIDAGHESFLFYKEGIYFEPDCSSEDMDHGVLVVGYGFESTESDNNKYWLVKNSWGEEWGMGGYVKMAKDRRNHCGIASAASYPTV

Turning to `N=C(N)c1cccc(C[C@H](NS(=O)(=O)c2ccccc2)c2nnco2)c1` (single isomer, unassigned) [Compound 2 (enantiomer 1, batch 1), 3-[2-Benzenesulfonamido-2-(1,3,4-oxadiazol-2-yl)ethyl]benzene-1-carboximidamide], the IC50 against FXIa (FXIa), against Tryptase b2, against MMP 1, against Kallikrein 14, against Kallikrein 1 and on Tryptase g1 was over 10 µM in each case. The IC50 at Matriptase 2, at Cathepsin B, at MMP 7, on FXa (FXa), against Mpro and against Kallikrein 13 was over 10 µM throughout. The IC50 on Thrombin a and against Cathepsin L was over 10 µM in each case.
Regarding `N=C(N)c1cccc(CC(NS(=O)(=O)c2ccccc2)c2nc3ccccc3s2)c1` (racemic) [1 (racemic mixture, batch 1), 3-[2-Benzenesulfonamido-2-(1,3-benzothiazol-2-yl)ethyl]benzene-1-carboximidamide], the IC50 on FXIa (FXIa) was over 10 µM; against Tryptase b2 it was over 10 µM; at MMP 1, over 10 µM; against Kallikrein 14, over 10 µM; against Kallikrein 1, under 10 µM; against Tryptase g1 it was over 10 µM. Besides, the IC50 on Matriptase 2, against Cathepsin B, at MMP 7, at FXa (FXa), against Mpro and on Kallikrein 13 was over 10 µM in each case. Further, the IC50 against Thrombin a and at Cathepsin L was over 10 µM each time.
Take `COc1ccc2nc(C(Cc3cccc(C(=N)N)c3)NS(=O)(=O)c3ccccc3)sc2c1` (centres unmarked) [Compound 11, 3-[2-Benzenesulfonamido-2-(6-methoxy-1,3-benzothiazol-2-yl)ethyl]benzene-1-carboximidamide]: the IC50 against FXIa (Factor XIa) was over 10 µM; against Tryptase b2, over 10 µM; on MMP 1, over 10 µM; against Kallikrein 14, over 10 µM; on Kallikrein 1, under 10 µM; against Tryptase g1, over 10 µM. Also, the IC50 is under 10 µM on Matriptase 2; over 10 µM at Cathepsin B; over 10 µM against MMP 7; over 10 µM on FXa (Factor Xa); over 10 µM against Mpro; over 10 µM at Kallikrein 13. In addition, the IC50 against Thrombin a and on Cathepsin L was over 10 µM throughout.
Take `N=C(N)c1cccc(CC(NS(=O)(=O)c2cccc(-c3ccc(Cl)cc3Cl)c2)c2nc3ccccc3s2)c1` (racemic) [3 (racemic), 3-[2-(1,3-Benzothiazol-2-yl)-2-{2′,4′-dichloro-[1,1′-biphenyl]-3-sulfonamido}ethyl]benzene-1-carboximidamide]: the IC50 was over 10 µM against FXIa (FXIa); under 10 µM against Tryptase b2; over 10 µM against MMP 1; over 10 µM against Kallikrein 14; over 10 µM on Kallikrein 1; under 10 µM against Tryptase g1. The IC50 was over 10 µM on Matriptase 2; over 10 µM against Cathepsin B; over 10 µM against MMP 7; under 10 µM on FXa (FXa); over 10 µM on Mpro; over 10 µM at Kallikrein 13. For the same molecule, the IC50 was under 10 µM at Thrombin a and over 10 µM against Cathepsin L.

What is called IC50 is the concentration that gives 50% inhibition. Low values mean higher potency, high ones lower potency.
